Measurements taken from patent publication US20230312529A1, “PYRIMIDINE SMALL-MOLECULE COMPOUND AND APPLICATION THEREOF” (WENZHOU MEDICAL UNIVERSITY, priority 2021, published 2023).
Where “and” joins values, the source holds several entries; their conditions need not be identical. Equal entries are not always repeated.

Columns and labels:
ABL1 = ABL1 (Homo sapiens (Human), UniProt P00519); assay: Caliper Mobility Shift kinase inhibition test; format: biochemical; settings: 100 nM; for inhibition at 0.1 µM: read-out: inhibitory rate on ABL1
Procedure: (§1) The method adopted in the test was Caliper Mobility Shift Assay, which was a detection platform based on the mobility detection technology of microfluidic chip technology. […] Collected data was tested on Caliper to yield that inhibition ratio to kinase activity=(max−conversion)/(max−min)×100. “max” was DMSO control without adding compound, and “min” was low control. When IC50 was determined, each sample was provided with 10 dilutions, each with 2 multiple holes, and repeated for 3 times.

FGFR2 = FGFR2 (Homo sapiens (Human), UniProt P21802); assay: Caliper Mobility Shift kinase inhibition test; format: biochemical
Procedure: (§2) The method adopted in the test was Caliper Mobility Shift Assay, which was a detection platform based on the mobility detection technology of microfluidic chip technology. Test steps: 1.25× kinase reaction buffer (62.5 mmol/L HEPES, pH 7.5; 0.001875% Brij-35; 12.5 mmol/L MgCl2; 2.5 mM DTT) and kinase reaction stop solution (100 mmol/L HEPES, pH 7.5; 0.015% Brij-35; 0.2% Coating Reagent #3) were configured. […] Collected data was tested on Caliper to yield that inhibition ratio to kinase activity=(max−conversion)/(max−min)×100. “max” was DMSO control without adding compound, and “min” was low control. When IC50 was determined, each sample was provided with 10 dilutions, each with 2 multiple holes, and repeated for 3 times.
(§3) According to the above-mentioned method for measuring kinase inhibitory activity, the inhibitory activity of the active compounds on other multiple kinases was measured to characterize the kinase selectivity of active inhibitors.

JAK1 = JAK1 (Homo sapiens (Human), UniProt P23458); assay: Caliper Mobility Shift kinase inhibition test; format: biochemical
JAK1, sequence (P23458 whole entry, species assumed): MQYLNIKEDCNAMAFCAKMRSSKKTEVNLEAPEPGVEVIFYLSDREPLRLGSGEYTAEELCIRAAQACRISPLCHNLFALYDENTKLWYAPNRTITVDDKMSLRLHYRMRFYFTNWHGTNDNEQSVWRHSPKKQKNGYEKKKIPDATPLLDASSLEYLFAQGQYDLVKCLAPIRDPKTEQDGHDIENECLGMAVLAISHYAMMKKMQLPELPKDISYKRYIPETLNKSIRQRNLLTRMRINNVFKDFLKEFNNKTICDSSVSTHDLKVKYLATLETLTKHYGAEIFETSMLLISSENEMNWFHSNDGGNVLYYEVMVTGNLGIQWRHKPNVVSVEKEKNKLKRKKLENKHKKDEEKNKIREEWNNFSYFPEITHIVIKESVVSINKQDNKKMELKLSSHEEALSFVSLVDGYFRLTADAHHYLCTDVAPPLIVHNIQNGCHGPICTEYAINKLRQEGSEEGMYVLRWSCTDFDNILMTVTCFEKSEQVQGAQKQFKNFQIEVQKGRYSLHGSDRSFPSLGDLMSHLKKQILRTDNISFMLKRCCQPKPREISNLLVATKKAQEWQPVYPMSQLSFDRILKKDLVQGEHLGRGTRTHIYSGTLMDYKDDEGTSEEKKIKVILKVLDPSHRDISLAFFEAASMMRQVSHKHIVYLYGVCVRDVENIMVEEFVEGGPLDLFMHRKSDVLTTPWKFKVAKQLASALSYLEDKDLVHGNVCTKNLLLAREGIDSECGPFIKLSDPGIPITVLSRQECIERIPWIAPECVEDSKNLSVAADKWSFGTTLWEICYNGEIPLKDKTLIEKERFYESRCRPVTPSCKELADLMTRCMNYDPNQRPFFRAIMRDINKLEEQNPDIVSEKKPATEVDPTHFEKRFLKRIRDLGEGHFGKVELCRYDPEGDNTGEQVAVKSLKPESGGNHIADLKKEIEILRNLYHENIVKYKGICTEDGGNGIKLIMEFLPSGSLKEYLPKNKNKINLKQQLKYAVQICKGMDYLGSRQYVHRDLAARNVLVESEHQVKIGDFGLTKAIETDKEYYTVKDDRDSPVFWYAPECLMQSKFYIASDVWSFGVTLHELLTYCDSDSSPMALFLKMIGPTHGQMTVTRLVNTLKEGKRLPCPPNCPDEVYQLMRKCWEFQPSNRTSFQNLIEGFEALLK
Procedure: as §2, §3

PDGFRβ = PDGFRβ (Homo sapiens (Human), UniProt P09619); assay: Caliper Mobility Shift kinase inhibition test; format: biochemical; settings: for inhibition at 0.1 µM / inhibitory rate on PDGFR-β: 100 nM; for inhibition at 0.1 µM: read-out: inhibitory rate on PDGFR-β; for IC50: read-out: IC50 PDGFR-β
PDGFRβ, sequence (P09619 33-1106): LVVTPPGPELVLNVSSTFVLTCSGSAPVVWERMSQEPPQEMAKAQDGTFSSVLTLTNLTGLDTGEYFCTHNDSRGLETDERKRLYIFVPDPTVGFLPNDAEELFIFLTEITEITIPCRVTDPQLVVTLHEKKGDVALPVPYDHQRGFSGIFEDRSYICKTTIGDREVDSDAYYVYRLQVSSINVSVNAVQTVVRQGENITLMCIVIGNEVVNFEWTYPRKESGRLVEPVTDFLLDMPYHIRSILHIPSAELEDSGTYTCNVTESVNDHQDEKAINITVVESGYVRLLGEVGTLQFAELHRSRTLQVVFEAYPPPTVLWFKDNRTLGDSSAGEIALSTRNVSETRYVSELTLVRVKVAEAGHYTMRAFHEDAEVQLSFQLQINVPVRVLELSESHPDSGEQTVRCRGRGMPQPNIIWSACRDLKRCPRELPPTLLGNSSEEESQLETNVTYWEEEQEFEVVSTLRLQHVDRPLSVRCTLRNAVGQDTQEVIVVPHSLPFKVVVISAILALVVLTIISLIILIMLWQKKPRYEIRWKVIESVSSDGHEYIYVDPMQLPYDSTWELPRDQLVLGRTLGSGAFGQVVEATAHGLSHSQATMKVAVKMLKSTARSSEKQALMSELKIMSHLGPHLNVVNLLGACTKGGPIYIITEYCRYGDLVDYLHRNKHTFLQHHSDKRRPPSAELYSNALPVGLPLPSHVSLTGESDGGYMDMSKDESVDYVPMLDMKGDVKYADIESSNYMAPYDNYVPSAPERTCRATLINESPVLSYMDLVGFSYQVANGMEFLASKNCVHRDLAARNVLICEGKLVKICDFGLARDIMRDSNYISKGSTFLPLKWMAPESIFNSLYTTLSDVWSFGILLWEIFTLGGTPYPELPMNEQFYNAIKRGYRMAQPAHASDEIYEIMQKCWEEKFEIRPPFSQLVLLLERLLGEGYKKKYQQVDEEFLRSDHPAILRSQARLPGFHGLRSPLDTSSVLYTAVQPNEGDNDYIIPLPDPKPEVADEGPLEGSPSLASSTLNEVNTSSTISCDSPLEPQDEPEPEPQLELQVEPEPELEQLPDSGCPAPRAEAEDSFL
Procedure: as §2, §3

ALK = ALK (Homo sapiens (Human), UniProt Q9UM73); assay: Caliper Mobility Shift kinase inhibition test; format: biochemical
ALK, sequence (Q9UM73 19-1620, species assumed): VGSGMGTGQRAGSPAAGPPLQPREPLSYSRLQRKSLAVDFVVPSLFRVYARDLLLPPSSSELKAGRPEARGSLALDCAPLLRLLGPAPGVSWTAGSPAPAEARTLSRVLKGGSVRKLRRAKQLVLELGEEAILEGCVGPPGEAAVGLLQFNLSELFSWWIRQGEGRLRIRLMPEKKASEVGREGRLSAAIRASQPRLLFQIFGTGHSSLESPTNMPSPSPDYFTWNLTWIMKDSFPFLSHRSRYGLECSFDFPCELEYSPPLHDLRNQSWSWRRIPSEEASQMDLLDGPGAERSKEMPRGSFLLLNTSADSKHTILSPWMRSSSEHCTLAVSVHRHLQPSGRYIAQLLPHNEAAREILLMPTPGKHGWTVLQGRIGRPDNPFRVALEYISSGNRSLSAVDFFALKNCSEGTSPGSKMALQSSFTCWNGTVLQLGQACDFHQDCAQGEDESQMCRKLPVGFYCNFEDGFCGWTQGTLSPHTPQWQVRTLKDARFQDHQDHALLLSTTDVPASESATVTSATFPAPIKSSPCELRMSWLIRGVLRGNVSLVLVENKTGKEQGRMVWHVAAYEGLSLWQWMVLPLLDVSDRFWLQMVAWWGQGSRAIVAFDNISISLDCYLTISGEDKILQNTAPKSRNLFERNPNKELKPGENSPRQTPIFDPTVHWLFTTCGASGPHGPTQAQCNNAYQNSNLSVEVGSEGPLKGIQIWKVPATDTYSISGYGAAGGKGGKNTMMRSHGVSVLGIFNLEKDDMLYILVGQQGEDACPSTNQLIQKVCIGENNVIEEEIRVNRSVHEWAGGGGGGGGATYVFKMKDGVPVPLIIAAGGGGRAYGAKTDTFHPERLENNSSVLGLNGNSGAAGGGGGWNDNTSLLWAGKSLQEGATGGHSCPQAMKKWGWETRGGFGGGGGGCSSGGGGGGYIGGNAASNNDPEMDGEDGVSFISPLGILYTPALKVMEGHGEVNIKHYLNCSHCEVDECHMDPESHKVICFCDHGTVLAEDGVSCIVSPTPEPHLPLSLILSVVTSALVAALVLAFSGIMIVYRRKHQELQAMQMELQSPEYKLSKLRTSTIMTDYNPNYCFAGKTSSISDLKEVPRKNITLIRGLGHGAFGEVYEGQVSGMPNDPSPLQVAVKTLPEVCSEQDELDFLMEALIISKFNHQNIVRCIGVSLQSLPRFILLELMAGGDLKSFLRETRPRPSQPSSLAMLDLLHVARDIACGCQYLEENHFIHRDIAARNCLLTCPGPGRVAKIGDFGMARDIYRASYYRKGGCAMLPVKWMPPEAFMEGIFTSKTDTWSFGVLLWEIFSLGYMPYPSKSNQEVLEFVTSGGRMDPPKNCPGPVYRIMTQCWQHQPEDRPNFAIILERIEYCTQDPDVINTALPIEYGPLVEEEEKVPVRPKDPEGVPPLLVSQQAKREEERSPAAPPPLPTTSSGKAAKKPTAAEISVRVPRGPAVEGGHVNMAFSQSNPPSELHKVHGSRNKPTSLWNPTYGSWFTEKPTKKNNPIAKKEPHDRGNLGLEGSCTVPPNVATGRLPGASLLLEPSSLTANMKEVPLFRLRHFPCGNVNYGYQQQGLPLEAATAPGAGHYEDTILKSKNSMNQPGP
Procedure: as §2

FLT3 = FLT3 (Homo sapiens (Human), UniProt P36888); assay: Caliper Mobility Shift kinase inhibition test; format: biochemical; settings: 100 nM; for inhibition at 0.1 µM: read-out: inhibitory rate on FLT3
Procedure: as §2

IKK β = IKK β (Homo sapiens (Human), UniProt O14920); assay: Caliper Mobility Shift kinase inhibition test; format: biochemical
IKK β, sequence (O14920 whole entry, species assumed): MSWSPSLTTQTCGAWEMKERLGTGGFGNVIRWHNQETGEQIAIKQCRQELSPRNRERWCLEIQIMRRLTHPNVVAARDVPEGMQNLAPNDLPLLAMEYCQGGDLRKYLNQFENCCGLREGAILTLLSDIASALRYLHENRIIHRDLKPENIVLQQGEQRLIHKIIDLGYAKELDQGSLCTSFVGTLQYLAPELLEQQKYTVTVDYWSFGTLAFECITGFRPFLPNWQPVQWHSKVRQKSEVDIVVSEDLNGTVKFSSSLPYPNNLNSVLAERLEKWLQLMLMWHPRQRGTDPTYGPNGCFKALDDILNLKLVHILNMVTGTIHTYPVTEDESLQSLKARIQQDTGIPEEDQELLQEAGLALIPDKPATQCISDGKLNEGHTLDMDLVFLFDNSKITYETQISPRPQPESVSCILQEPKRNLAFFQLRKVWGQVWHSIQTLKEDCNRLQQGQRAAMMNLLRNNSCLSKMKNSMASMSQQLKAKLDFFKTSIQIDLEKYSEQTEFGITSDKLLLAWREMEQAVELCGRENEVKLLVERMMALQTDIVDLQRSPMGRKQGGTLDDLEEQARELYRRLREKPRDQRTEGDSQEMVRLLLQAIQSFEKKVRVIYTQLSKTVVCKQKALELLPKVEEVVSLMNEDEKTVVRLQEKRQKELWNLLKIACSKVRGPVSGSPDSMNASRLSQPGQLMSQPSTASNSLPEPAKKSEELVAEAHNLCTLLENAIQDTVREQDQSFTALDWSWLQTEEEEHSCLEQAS
Procedure: as §2

MG-63 osteosarcoma cells = assay: MTT assay on osteosarcoma cells; format: cell-based; settings: Homo sapiens, 48 hours, read-out: Inhibitory activity (IC50) MG-63
Procedure: (§4) Logarithmic osteosarcoma cells were inoculated into a 96-well plate with a cell concentration of 1,500 cell/well for 6 hours by using MTT assay, and each well was filled with 200 μL of cell suspension. […] The samples were cultured in an incubator for 48 hours (37° C., 5% CO2), and 20 v L of MTT (3-(4,5-dimethylthiazole-2)-2,5-diphenyltetrazole) were added into each hole. After continuous culture for 4 hours, the culture solution was discarded by suction, and 200 v L of DMSO were added to each well. […] Calculation method of IC50 value: the IC50 values of the samples were calculated by curve fitting with GraphPad Prism software.

[1] = tested on: MNNG/HOS osteosarcoma cells; assay: MTT assay on osteosarcoma cells; format: cell-based; settings: 48 hours, read-out: Inhibitory activity (IC50) MNNG/HOS
Procedure: as §4

[2] = tested on: SAOS-2 osteosarcoma cells; assay: MTT assay on osteosarcoma cells; format: cell-based; settings: Homo sapiens, 48 hours, read-out: Inhibitory activity (IC50) SAOS-2
Procedure: as §4

U2OS osteosarcoma cells = assay: MTT assay on osteosarcoma cells; format: cell-based; settings: Homo sapiens, 48 hours, read-out: Inhibitory activity (IC50) U2OS
Procedure: as §4

PDGFRα = PDGFRα (Homo sapiens (Human), UniProt P16234); assay: Caliper Mobility Shift kinase inhibition test; format: biochemical; settings: read-out: inhibitory rate on PDGFR-α, 100 nM
Procedure: as §1

[3] = tested on: human normal retinal cells ARPE-19; assay: MTT assay on human retinal cells; format: cell-based; settings: Homo sapiens, ARPE-19; MTT; read-out: Inhibitory activity (IC50) ARPE-19
[4] = tested on: human brain microvascular endothelial cells (HCMEC/D3); assay: MTT assay on human neovascular cells; format: cell-based; settings: Homo sapiens, hCMEC/D3; MTT; read-out: Inhibitory activity (IC50) HCMEC-D3
[5] = tested on: human cerebrovascular pericytes (HBVP); assay: MTT assay on human neovascular cells; format: cell-based; settings: Homo sapiens; MTT; read-out: Inhibitory activity (IC50) HBVP

SMILES | inhibition at 0.1 µM (ABL1) | IC50 (FGFR2) | IC50 (JAK1) | inhibition at 0.1 µM (PDGFRβ) | IC50 (PDGFRβ) | IC50 (ALK) | inhibition at 0.1 µM (FLT3) | IC50 (IKK β) | inhibitory activity on PDGFRβ (in words) (PDGFRβ) | IC50 (MG-63 osteosarcoma cells) | IC50 [1] | IC50 [2] | IC50 (U2OS osteosarcoma cells) | inhibitory rate on ABL1 (ABL1) | inhibitory rate on PDGFR-β (PDGFRβ) | inhibitory rate on FLT3 (FLT3) | inhibition at 0.1 µM (PDGFRα) | IC50 [3] | IC50 [4] | IC50 [5]
Cc1cnc(Nc2ccc(N3CCS(=O)(=O)CC3)cc2)nc1Nc1ccc2cn[nH]c2c1 [Compound 6d, 4-(4-((4-((1H-indazol-6-yl)amino)-5-methylpyrimidine-2-yl)amino)phenyl)thiomorpholine 1,1-dioxide] | 59.6% | 117 nM | 99 nM | 70.3% | 70.3 nM and 39 nM | 186 nM | 78.4% | 619 nM | – | – | – | – | – | – | – | – | – | – | – | –
COc1cc(N2CCN(C)CC2)ccc1Nc1ncc(C)c(Nc2ccc3cn[nH]c3c2)n1 [Compound 6e, N^4-(1H-indazol-6-yl)-N^2-(2-methoxy-4-(4-methylpiperazine-1-yl)phenyl)-5-methylpyrimidine-2,4-diamine] | 78.8% | > 1000 nM | 199 nM | 63.4% | 72 nM | 7 nM | 79.5% | > 1000 nM | – | – | – | – | – | – | – | – | – | – | – | –
COc1cc(Nc2ncc(C)c(Nc3ccc4cn[nH]c4c3)n2)ccc1N1CCN(C)CC1 [Compound 6f, N^4-(1H-indazol-6-yl)-N^2-(3-methoxy-4-(4-methylpiperazine-1-yl)phenyl)-5-methylpyrimidine-2,4-diamine] | 98% | 61 nM | 31 nM | 97% | 2.6 nM | 11 nM | 97.8% | > 1000 nM | significant inhibitory activities | 841 ± 5 nM | 1.36 ± 0.019 µM | 720 ± 25 nM | 756 ± 1 nM | – | – | – | – | – | – | –
Cc1cnc(Nc2ccc(N3CCN(C)CC3)cc2)nc1Nc1ccc2cn[nH]c2c1 [Compound 6g, N^4-(1H-indazol-6-yl)-5-methyl-N^2-(4-(4-methylpiperazine-1-yl)phenyl)pyrimidine-2,4-diamine] | – | 81 nM | 13 nM | – | 8.8 nM | 26 nM | – | 595 nM | significant inhibitory activities | – | – | – | – | 89.6% | 93.8% | 87.6% | – | – | – | –
CCN1CCN(c2ccc(Nc3ncc(C)c(Nc4ccc5cn[nH]c5c4)n3)c(OC)c2)CC1 [Compound 6h, N^2-(4-(4-ethylpiperazine-1-yl)-2-methoxyphenyl)-N^4-(1H-indazol-6-yl)-5-methylpyrimidine-2,4-diamine] | 87.5% | > 1000 nM | 320 nM | 80.2% | 40 nM | 5.8 nM | 82.6% | > 1000 nM | – | – | – | – | – | – | – | – | – | – | – | –
Cc1cnc(Nc2ccc(N3CCC(N4CCN(C)CC4)CC3)cc2)nc1Nc1ccc2cn[nH]c2c1 [Compound 6j, N^4-(1H-indazol-6-yl)-5-methyl-N^2-(4-(4-(4-methylpiperazine-1-y 1)piperidine-1-yl)phenyl)pyrimidine-2,4-diamine] | – | 89 nM | 14 nM | – | 12 nM | 23 nM | – | > 1000 nM | – | – | – | – | – | 87.6% | 85.4% | 91.0% | – | – | – | –
Cc1cnc(Nc2ccc(C(=O)NCCN3CCOCC3)cc2)nc1Nc1ccc2cn[nH]c2c1 [Compound 6n] | – | 102 nM | 6 nM | – | 19 nM | 95 nM | – | 181 nM | – | – | – | – | – | 81.2% | 82.4% | 82.3% | – | – | – | –
Cc1ccc(Nc2nccc(N(C)c3ccc4c(C)n(C)nc4c3)n2)cc1S(N)(=O)=O [Pazopanib, reference compound] | – | – | – | 76.7% | – | – | 80.6% | – | – | > 100000 nM | 8.52 ± 0.868 µM | > 100000 nM | > 100000 nM | – | – | – | 96.9% | – | – | –
CNC(=O)c1cc(Oc2ccc(NC(=O)Nc3ccc(Cl)c(C(F)(F)F)c3)cc2)ccn1 [Sorafenib, reference compound] | – | – | – | – | – | – | – | – | – | – | – | – | – | – | – | – | – | 23.29 ± 0.143 µM | 6.32 ± 0.73 µM | 9.92 ± 0.598 µM
Cc1[nH]c(/C=C2\C(=O)Nc3ccc(F)cc32)c(C)c1C(=O)N[C@H]1CCN(C(=O)N(C)C)C1 [Vorolanib, reference compound] | – | – | – | – | – | – | – | – | – | – | – | – | – | – | – | – | – | 56.2 ± 3.23 µM | 34.3 ± 0.885 µM | 18.5 ± 10.5 µM
